Assays:
Settings in all cases: 48 h
NOMO1 [1] = assay: cell viability relative to DMSO control; higher = less cytotoxic
Summary of the method: (§1)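 Viability is a per-plate percentage relative to DMSO wells, with cell-free wells as background. CellTiter-Glo One luminescence was read after 48 h at 37°C on 1536-well plates (5 μl) of NOMO1 or SEM (500 cells/well) or P12-Ichikawa (1000 cells/well) leukemia cells. The cells had been adapted for at least four passages in each medium and pin-dosed with library compounds in DMSO from 47 μM to 0.79 nM in 11 threefold steps.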

P12-Ichikawa [2] = assay: as above
Summary of the method: as §1

SEM cells [3] = assay: as above
Summary of the method: as §1

NOMO1 [4] = assay: AUC of viability dose-response curve (% viability x log10 dose units); higher = less sensitive
Summary of the method: (§2)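 Leukemia cells adapted to each medium were seeded in 1536-well plates (500 or 1000 cells/well). They were dosed with library compounds in DMSO at 11 threefold doses, 47 μM to 0.79 nM, for 48 h at 37°C. CellTiter-Glo One luminescence was normalised per plate to DMSO and cell-free wells. Area under the curve was integrated by trapezoidal rule over log10 doses on a four-parameter log-logistic fit; curves exceeding full viability were scaled and curves failing quality control removed.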

P12-Ichikawa [5] = assay: as above
Summary of the method: as §2

SEM cells [6] = assay: as above
Summary of the method: as §2

C[S+](=O)([O-])Oc1ccc2c(NC(N)=O)c(C(=O)c3ccc(Cl)cc3Cl)oc2c1
cell viability [%]
Settings | NOMO1 [1] | P12-Ichikawa [2] | SEM cells [3]
HPLM + 10% dialyzed FBS, 0.000781 µM | 115 | 113 | 98.3
HPLM + 10% dialyzed FBS, 0.00234 µM | 103 | 120 | 103
HPLM + 10% dialyzed FBS, 0.00702 µM | 114 | 122 | 107
HPLM + 10% dialyzed FBS, 0.0211 µM | 113 | 116 | 109
HPLM + 10% dialyzed FBS, 0.0632 µM | 140 | 120 | 109
HPLM + 10% dialyzed FBS, 0.19 µM | 139 | 113 | 104
HPLM + 10% dialyzed FBS, 0.569 µM | 127 | 122 | 110
HPLM + 10% dialyzed FBS, 1.71 µM | 128 | 119 | 117
HPLM + 10% dialyzed FBS, 5.12 µM | 105 | 108 | 129
HPLM + 10% dialyzed FBS, 15.4 µM | 100 | 99.9 | 120
HPLM + 10% dialyzed FBS, 46.1 µM | 42.7 | 66.5 | 120
RPMI 5 mM glucose + 10% FBS, 0.000781 µM | 105 | 112 | 93.7
RPMI 5 mM glucose + 10% FBS, 0.00234 µM | 111 | 109 | 95.9
RPMI 5 mM glucose + 10% FBS, 0.00702 µM | 104 | 121 | 106
RPMI 5 mM glucose + 10% FBS, 0.0211 µM | 115 | 117 | 109
RPMI 5 mM glucose + 10% FBS, 0.0632 µM | 120 | 130 | 117
RPMI 5 mM glucose + 10% FBS, 0.19 µM | 119 | 116 | 105
RPMI 5 mM glucose + 10% FBS, 0.569 µM | 125 | 123 | 106
RPMI 5 mM glucose + 10% FBS, 1.71 µM | 117 | 125 | 114
RPMI 5 mM glucose + 10% FBS, 5.12 µM | 115 | 129 | 103
RPMI 5 mM glucose + 10% FBS, 15.4 µM | 106 | 109 | 122
RPMI 5 mM glucose + 10% FBS, 46.1 µM | 50.3 | 73.3 | 112
RPMI 5 mM glucose + 10% dialyzed FBS, 0.000781 µM | 127 | 116 | 82.9
RPMI 5 mM glucose + 10% dialyzed FBS, 0.00234 µM | 111 | 118 | 91.6
RPMI 5 mM glucose + 10% dialyzed FBS, 0.00702 µM | 122 | 112 | 102
RPMI 5 mM glucose + 10% dialyzed FBS, 0.0211 µM | 126 | 110 | 94
RPMI 5 mM glucose + 10% dialyzed FBS, 0.0632 µM | 119 | 117 | 97
RPMI 5 mM glucose + 10% dialyzed FBS, 0.19 µM | 116 | 122 | 103
RPMI 5 mM glucose + 10% dialyzed FBS, 0.569 µM | 115 | 122 | 105
RPMI 5 mM glucose + 10% dialyzed FBS, 1.71 µM | 128 | 126 | 92.7
RPMI 5 mM glucose + 10% dialyzed FBS, 5.12 µM | 135 | 118 | 98.2
RPMI 5 mM glucose + 10% dialyzed FBS, 15.4 µM | 105 | 105 | 92.5
RPMI 5 mM glucose + 10% dialyzed FBS, 46.1 µM | 76.8 | 91.5 | 105

AUC of viability dose-response curve
Settings | NOMO1 [4] | P12-Ichikawa [5] | SEM cells [6]
HPLM + 10% dialyzed FBS | 449 | 455 | 433
RPMI 5 mM glucose + 10% FBS | 460 | 463 | 442
RPMI 5 mM glucose + 10% dialyzed FBS | 462 | 466 | 464
